Data set [1] deals with T1, CYP3A4 (Homo sapiens, UniProt P08684). Kind of data set: Inactivation kinetics of CYP3A4 (literature data and reanalysis).
Description: (§1) Firstly, the remaining enzyme activities were extracted from the data sets for all inactivator concentrations and plotted against the respective preincubation times used. Secondly, the resulting decay curves for different inactivator concentrations were fitted to mono-exponential functions, thus yielding observed inactivation rates kobs for all inactivator concentrations.
The next data set deals with T2, human HDAC8 (Homo sapiens, UniProt Q9BY41).
T2 sequence (Q9BY41 1-377): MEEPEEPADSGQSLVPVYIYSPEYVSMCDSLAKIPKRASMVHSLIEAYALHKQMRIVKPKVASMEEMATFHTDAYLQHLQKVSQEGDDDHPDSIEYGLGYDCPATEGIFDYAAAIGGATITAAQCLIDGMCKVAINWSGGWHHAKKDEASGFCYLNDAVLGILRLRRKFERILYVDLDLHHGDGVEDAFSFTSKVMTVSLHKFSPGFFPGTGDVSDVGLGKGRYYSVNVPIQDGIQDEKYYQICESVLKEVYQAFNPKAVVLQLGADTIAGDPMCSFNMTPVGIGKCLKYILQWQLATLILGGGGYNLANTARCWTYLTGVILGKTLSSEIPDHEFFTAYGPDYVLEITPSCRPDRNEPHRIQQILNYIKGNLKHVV
Kind of data set: Time-dependent fluorometric HDAC8 enzyme activity assay (dose-response curves after different pre-incubation times). As to conditions: for Binding / inhibition mechanism classification: from time-dependent dose-response curves and kobs vs [I] plot; for kinact: read-out: kinact (min^−1); for kinact/KI: read-out: kinact/KI (M^−1s^−1).

For data set [2], the target named is T3, CYP2C8 (Homo sapiens, UniProt P10632).
T3 sequence (P10632 1-490): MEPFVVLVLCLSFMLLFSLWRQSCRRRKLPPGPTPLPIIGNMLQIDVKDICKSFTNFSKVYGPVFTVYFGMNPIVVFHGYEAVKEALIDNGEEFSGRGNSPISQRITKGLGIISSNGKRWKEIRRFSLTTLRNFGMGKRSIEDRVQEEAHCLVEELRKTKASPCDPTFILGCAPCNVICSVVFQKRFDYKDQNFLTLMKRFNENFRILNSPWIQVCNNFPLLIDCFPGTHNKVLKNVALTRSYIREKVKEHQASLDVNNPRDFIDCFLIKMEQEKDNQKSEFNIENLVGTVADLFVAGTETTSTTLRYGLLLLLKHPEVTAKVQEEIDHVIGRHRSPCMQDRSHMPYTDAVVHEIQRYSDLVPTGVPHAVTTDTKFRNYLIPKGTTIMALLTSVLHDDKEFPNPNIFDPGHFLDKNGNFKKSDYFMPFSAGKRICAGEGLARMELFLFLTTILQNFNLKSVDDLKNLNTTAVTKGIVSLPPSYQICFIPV
Description: Inactivation kinetics of CYP2C8 (literature data and reanalysis).
Description: as §1

In data set [3] the target is T1, CYP3A4. As to conditions: CYP3A4 inactivation ref 38, cited from earlier work.
On the set-up of data set [4]: method as in PMID 5970483. The settings on record: pH of 7.0 ref 48; cited from earlier work.
On the set-up of data set [5]: method as in PMID 5970483. As to conditions: pH 8 ref 48; cited from earlier work.
For data set [6], the target named is T3, CYP2C8. The settings on record: CYP2C8 inactivation ref 36, cited from earlier work.
Data set [7] relates to HDAC8. As to conditions: read-out: IC50 (µM) (Lit.), cited from earlier work.
Data set [8] deals with HDAC8. Also on record: method as in PMID 24882269. The settings on record: binding affinity to HDAC8 ref 41; cited from earlier work.
In a further data set the test system is HIV protease. Also on record: method as in PMID 17928344. As to conditions: HIV protease ref 18; cited from earlier work.

Structures are written as SMILES. “Also recorded” adds a separate entry of the source. Read-outs that look alike come from different tables or passages of the source.

T1 sequence (P08684 2-503): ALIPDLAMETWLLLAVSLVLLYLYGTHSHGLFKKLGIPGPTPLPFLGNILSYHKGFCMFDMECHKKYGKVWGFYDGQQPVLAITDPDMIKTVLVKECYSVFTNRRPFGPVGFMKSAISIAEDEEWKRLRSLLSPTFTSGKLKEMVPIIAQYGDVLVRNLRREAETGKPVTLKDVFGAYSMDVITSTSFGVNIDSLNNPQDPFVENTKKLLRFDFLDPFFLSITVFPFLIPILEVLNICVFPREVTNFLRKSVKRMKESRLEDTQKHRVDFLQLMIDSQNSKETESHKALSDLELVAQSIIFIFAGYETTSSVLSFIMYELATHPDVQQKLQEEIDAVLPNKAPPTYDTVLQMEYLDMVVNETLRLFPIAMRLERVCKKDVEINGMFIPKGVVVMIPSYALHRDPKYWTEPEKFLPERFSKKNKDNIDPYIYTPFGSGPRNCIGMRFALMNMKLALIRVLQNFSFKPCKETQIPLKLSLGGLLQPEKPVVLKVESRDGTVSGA
Description for human HDAC8: HDAC8 activity was determined using a fluorometric assay, as previously described [44]. […] The enzyme reaction was initiated by adding 20 μM of the substrate Boc-Lys(TFA)-AMC (Bachem, Bubendorf, Switzerland). […] The measurements were carried out using a fluorescence microplate reader (PHERAstar FS, BMG LABTECH, Ortenberg, Germany) with fluorescence excitation at 360 nm and emission at 460 nm. IC50 values were calculated using GraphPad Prism 9 by generating dose–response curves and fitting them to a 4-parameter fit model [50]. The results represent the mean ± SD of three independent experiments.
The binding constant Ki for the 1-step binding mechanism in Equation (5) was calculated as follows:(5) Ki=koff/kon
A plot of kobs versus inhibitor or inactivator concentration ([I]) allows distinguishing between 1-step or 2-step behavior: a straight line indicates 1-step, and a saturation curve indicates a 2-step mechanism. Kinetic parameters were obtained from fitting kobs vs. [I] data to the following functions for the indicated mechanism:
Reversible 1-step binding (see Equation (1)):(8) kobs=kon[I]+koff where kon and koff are association and dissociation rate constants, respectively.
Reversible 2-step binding (see Equation (2)):(9) kobs=k−r+kr/1+IC50/[I] where kr and k−r are forward and reverse isomerization rate constants of the second step.
Irreversible 1-step inactivation (see Equation (3)):(10) kobs=kinact/KI[I] where kinact is the inactivation rate, KI is [I], and kinact is the half-maximum.
Irreversible 2-step inactivation (see Equation (4)):(11) kobs=kinact[I]/KI +[I]

With `CC(C)=CCC/C(C)=C/COc1c2ccoc2cc2oc(=O)ccc12` [Bergamottin], on CYP3A4 [1] (human), the Ki came out at 12 ± 5 µM and the kinact (usually the rate constant of inactivation at saturating inhibitor) was 0.0065 s⁻¹.

In the case of `O=c1c2ccccc2[se]n1-c1ccccc1` [Ebselen, reference compound], on human HDAC8, the midpoint of inhibition, the IC50, lay at 80 ± 30 nM; the “Binding / inhibition mechanism classification” value is given as “rapidly inactivated HDAC8; also recorded: fast covalent inactivators”; the kinact is above 2 min⁻¹.

`C#C[C@]1(O)CC[C@H]2[C@@H]3CCc4cc(O)ccc4[C@H]3CC[C@@]21C` [Ethynyl-estradiol, reference compound] returned a Ki on CYP3A4 [1] (human) of 5.4 ± 2.5 µM.

For the molecule `NNC(=O)c1ccncc1` [Isoniazid], at CYP2C8 [2] (human), the Ki amounted to 280 ± 40 µM and the kinact was 0.0006 s⁻¹.

For `CC/C(=C(\c1ccccc1)c1ccc(OCCNC)cc1)c1ccccc1` [N-desmethy-ltamoxifen], the “kinact (min^−1), Reanalysis” value at CYP3A4 [1] (CYP3A4, reanalysis of literature data (refs 37-39) with two-step fit of kobs vs [I]) is 0.083 ± 0.007 min⁻¹. Also, the Ki is 2.5 ± 1 µM at CYP3A4 [1] (read-out: KI (µM), Reanalysis, CYP3A4, reanalysis of literature data (refs 37-39) with two-step fit of kobs vs [I]) and 2.6 µM at CYP3A4 [3] (read-out: KI (µM), Literature). The “kinact (min^−1), Literature” value on CYP3A4 [3] is 0.08 min⁻¹.

Consider `CCN1C(=O)C=CC1=O` [NEM, N-ethylmaleimide, reference compound], for which the “rate constant, times lower than that of cysteine” value in [4] is given as “more than 100 times”. Besides, on human HDAC8, the IC50 (commonly the midpoint of a concentration-inhibition curve) lay within 700 to 42000 nM, the “Binding / inhibition mechanism classification” value is “unspecific one-step affinity labeling; also recorded: slow inactivation behavior” and the kinact/KI amounted to 133 ± 3 M⁻¹ s⁻¹. Also, the “second-order rate constant for N-ethylmaleimide reaction with cysteine” value in data set [5] is listed as 15,300 M^−1s^−1.

Turning to `CNCCC=C1c2ccccc2CCc2ccccc21` [Nortriptyine], the “kinact (min^−1), Literature” value on CYP2C8 [6] was 0.036 min⁻¹. Moreover, the Ki at CYP2C8 [6] (read-out: KI (µM), Literature) was 49.9 µM; on CYP2C8 [2] (read-out: KI (µM), Reanalysis, CYP2C8, reanalysis of literature data (ref 36) with two-step fit of kobs vs [I]), 66 ± 12 µM. Further, the “kinact (min^−1), Reanalysis” value at CYP2C8 [2] (CYP2C8, reanalysis of literature data (ref 36) with two-step fit of kobs vs [I]) came out at 0.044 ± 0.003 min⁻¹.

For the molecule `N=C1Sc2ccccc2C2=NCCCN12` [P2742], the IC50 in the data set with HDAC8 [7] (literature value ref 47) was […].

Consider `COc1ccc(Cn2ccc3ccc(C(=O)NO)cc32)cc1` [PCI-34051, reference compound], for which the IC50 in the data set with HDAC8 [7] (literature value ref 43) was […]. Also, the “Binding / inhibition mechanism classification” value on human HDAC8 is “fast-reversible inhibitors”.

For the molecule `NNCCc1ccccc1` [Phenelzine], at CYP2C8 [2] (human), the Ki came out at 0.84 ± 0.24 µM and the kinact was 0.0035 s⁻¹.

As to `O=C(CCCCCCC(=O)Nc1ccccc1)NO` [SAHA, suberoylanilide hydroxamic acid, reference compound], the “Binding / inhibition mechanism classification” value at human HDAC8 is listed as “fast-reversible inhibitors”.

Take `O=C(CCCCCCC(=O)C(F)(F)F)Nc1ccccc1` [SATFMK]: the IC50 with HDAC8 [7] (literature value ref 42) is 0.021 µM. At HDAC8 [8], the Kd (in general, the equilibrium constant for the complex coming apart) is 5.6 nM.

Regarding `COC(=O)c1ccc(/C=C(\C#N)C(=O)C(F)(F)F)cc1` [SVE04], at human HDAC8, the IC50 was 4200 ± 1100 nM, the Ki amounted to 1300 nM and the “Binding / inhibition mechanism classification” value is “fast reversible HDAC8 inhibitors; also recorded: fast reversible binding”.

With `COc1ccc(CC(C#N)C(=O)O)cc1` (centres unmarked) [SVE27], at human HDAC8, the IC50 amounted to 2600 ± 400 nM, the Ki was 800 nM and the “Binding / inhibition mechanism classification” value is reported as “fast reversible HDAC8 inhibitors; also recorded: fast reversible binding”.

With `Cc1cc(C)cc(CSc2nc(Cl)ns2)c1` [TJ-19-24], at human HDAC8, the IC50 is 400 to 4000 nM; the Ki was determined as 5900 ± 800 nM; the “Binding / inhibition mechanism classification” value is given as “slow two-step inactivators or reversible inhibitors, with a very low reverse isomerization rate; also recorded: slow covalent inactivator; also recorded: slow two-step inactivation”; the kinact is 1 min⁻¹. The kinact/KI on human HDAC8 was determined as 2820 M⁻¹ s⁻¹.

On to `Cc1cc(C)cc(CS(=O)(=O)c2nc(Cl)ns2)c1` [TJ-19-28], for which, on human HDAC8, the IC50 lay within 300 to 3000 nM, the Ki worked out at 12000 ± 3000 nM, the “Binding / inhibition mechanism classification” value is listed as “two-step inactivation mechanism; also recorded: irreversible inactivation mechanism” and the kinact is 1.8 min⁻¹. Moreover, at human HDAC8, the kinact/KI was found to be 2500 M⁻¹ s⁻¹.

For the molecule `CC(C)CN(C[C@@H](O)[C@H](Cc1ccccc1)NC(=O)O[C@H]1CO[C@H]2OCC[C@H]21)S(=O)(=O)c1ccc(N)cc1` [darunavir], the “residence time (RT)” value in the data set with HIV protease is 247 h.

For the molecule `CC(C)(C)NC(=O)[C@@H]1CN(Cc2cccnc2)CCN1C[C@@H](O)C[C@@H](Cc1ccccc1)C(=O)N[C@H]1c2ccccc2C[C@H]1O` [indinavir], the “residence time (RT)” value in the data set on HIV protease is on record as 0.3 h.

Source of the values: PMC11171933, “Rapid Determination of Kinetic Constants for Slow-Binding Inhibitors and Inactivators of Human Histone Deacetylase 8” (International Journal of Molecular Sciences, 2024).
